Results from patent publication US20120053053A1, “PYRIMIDINE DERIVATIVES AND THEIR USE AS HERBICIDES” (SYNGENTA CROP PROTECTION, LLC, priority 2009, published 2012).

Assays:
Assay type in all cases: in vivo
[1] = tested on: Alopecurus myosuroides (ALOMY); experiment: Pre-emergence biological efficacy (percentage damage); conditions: evaluated after 13 days, 100=total damage, 0=no damage; for pest or weed control at 1000 g/ha / Percentage damage ALOMY, pre-emergence: dose 1,000 g/ha
How it was run: (§1)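 Seeds were sown in standard soil in pots and, one day later, sprayed with test compound at 250 or 1000 g/ha in acetone/water (50:50) with 0.5% Tween 20. Plants grew in a glasshouse at 24/16 °C day/night, 14 h light, 65% humidity; damage was scored after 13 days (0 = none, 100 = total).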

[2] = tested on: Amaranthus retoflexus (AMARE); experiment: as above; conditions: evaluated after 13 days, 100=total damage, 0=no damage; for pest or weed control at 1000 g/ha / Percentage damage AMARE, pre-emergence: dose 1,000 g/ha
How it was run: as §1

[3] = tested on: Echinochloa crus-galli (ECHCG); experiment: as above; conditions: evaluated after 13 days, 100=total damage, 0=no damage; for pest or weed control at 1000 g/ha / Percentage damage ECHCG, pre-emergence: dose 1,000 g/ha
How it was run: as §1

[4] = tested on: Ipomea hederaceae (IPOHE); experiment: as above; conditions: evaluated after 13 days, 100=total damage, 0=no damage; for pest or weed control at 1000 g/ha / Percentage damage IPOHE, pre-emergence: dose 1,000 g/ha
How it was run: as §1

Setaria faberi (SETFA) [5] = experiment: as above; conditions: evaluated after 13 days, 100=total damage, 0=no damage; for pest or weed control at 1000 g/ha / Percentage damage SETFA, pre-emergence: dose 1,000 g/ha
How it was run: as §1

Solanum nigrum (SOLNI) [6] = experiment: as above; conditions: evaluated after 13 days, 100=total damage, 0=no damage; for pest or weed control at 1000 g/ha / Percentage damage SOLNI, pre-emergence: dose 1,000 g/ha
How it was run: as §1

[7] = tested on: Alopecurus myosuroides (ALOMY); experiment: Post-emergence biological efficacy (percentage damage); conditions: evaluated after 13 days, 100=total damage, 0=no damage; for pest or weed control at 1000 g/ha / Percentage damage ALOMY, post-emergence: dose 1,000 g/ha
How it was run: (§2)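 Applied rates: 250 or 1000 g/ha, sprayed from acetone/water (50:50) with 0.5% Tween 20 onto plants 8 days after sowing. Visual damage rating 13 days later on a 0–100 scale.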

[8] = tested on: Amaranthus retoflexus (AMARE); experiment: as above; conditions: evaluated after 13 days, 100=total damage, 0=no damage; for pest or weed control at 1000 g/ha / Percentage damage AMARE, post-emergence: dose 1,000 g/ha
How it was run: as §2

[9] = tested on: Echinochloa crus-galli (ECHCG); experiment: as above; conditions: evaluated after 13 days, 100=total damage, 0=no damage; for pest or weed control at 1000 g/ha / Percentage damage ECHCG, post-emergence: dose 1,000 g/ha
How it was run: as §2

[10] = tested on: Ipomea hederaceae (IPOHE); experiment: as above; conditions: evaluated after 13 days, 100=total damage, 0=no damage; for pest or weed control at 1000 g/ha / Percentage damage IPOHE, post-emergence: dose 1,000 g/ha
How it was run: as §2

Setaria faberi (SETFA) [11] = experiment: as above; conditions: evaluated after 13 days, 100=total damage, 0=no damage; for pest or weed control at 1000 g/ha / Percentage damage SETFA, post-emergence: dose 1,000 g/ha
How it was run: as §2

Solanum nigrum (SOLNI) [12] = experiment: as above; conditions: evaluated after 13 days, 100=total damage, 0=no damage; for pest or weed control at 1000 g/ha / Percentage damage SOLNI, post-emergence: dose 1,000 g/ha
How it was run: as §2

[13] = Alopecurus myosuroides, 312 h, dose 250 g/ha
[14] = Amaranthus retroflexus, 312 h, dose 250 g/ha
[15] = Echinochloa crus-galli, 312 h, dose 250 g/ha
[16] = Ipomoea hederacea, 312 h, dose 250 g/ha
[17] = Setaria faberi, 312 h, dose 250 g/ha
[18] = Solanum nigrum, 312 h, dose 250 g/ha

Row | SMILES | pest or weed control at 1000 g/ha ([1]; Alopecurus myosuroides, 312 h) | pest or weed control at 1000 g/ha ([2]; Amaranthus retroflexus, 312 h) | pest or weed control at 1000 g/ha ([3]; Echinochloa crus-galli, 312 h) | pest or weed control at 1000 g/ha ([4]; Ipomoea hederacea, 312 h) | pest or weed control at 1000 g/ha (Setaria faberi (SETFA) [5]; Setaria faberi, 312 h) | pest or weed control at 1000 g/ha (Solanum nigrum (SOLNI) [6]; Solanum nigrum, 312 h) | pest or weed control at 1000 g/ha ([7]; Alopecurus myosuroides, 312 h) | pest or weed control at 1000 g/ha ([8]; Amaranthus retroflexus, 312 h) | pest or weed control at 1000 g/ha ([9]; Echinochloa crus-galli, 312 h) | pest or weed control at 1000 g/ha ([10]; Ipomoea hederacea, 312 h) | pest or weed control at 1000 g/ha (Setaria faberi (SETFA) [11]; Setaria faberi, 312 h) | pest or weed control at 1000 g/ha (Solanum nigrum (SOLNI) [12]; Solanum nigrum, 312 h) | further results
1 | COC(=O)COc1nc(C2CC2)nc(Cl)c1C [Compound 2-376, 4-chloro-2-cyclopropyl-6-methoxycarbonylmethoxy-5-methylpyrimidine] | 0% | 30% | 0% | 0% | 0% | 0% | 0% | 20% | 0% | 50% | 20% | 30% | 
2 | C=Cc1c(N)nc(-c2ccc(Cl)c(Cl)c2)nc1C(=O)OC [Compound 9-61, 4-Amino-2-(3,4-dichlorophenyl)-5-ethenyl-6-methoxycarbonyl-pyrimidine] | 0% | 90% | 30% | 10% | 0% | 70% | 20% | 100% | 20% | 70% | 0% | 90% | 
3 | C=C(OCC)c1c(N)nc(-c2ccc(C(F)(F)F)cc2)nc1C(=O)OC [Compound 31-67, 4-amino-5-(1-ethoxyethenyl)-6-methoxycarbonyl-2-(4-trifluoromethylphenyl)-pyrimidine] | 0% | 0% | 0% | 0% | 0% | 0% | 0% | 50% | 0% | 80% | 0% | 80% | 
4 | COC(=O)c1nc(C2CC2)nc(N)c1C=C(C)C [Compound 2-69, 4-Amino-2-cyclopropyl-6-methoxycarbonyl-5-(2-methylprop-1-enyl)-pyrimidine] | 10% | 100% | 0% | 70% | 0% | 90% | 10% | 20% | 0% | 70% | 10% | 80% | 
5 | C=C(OCC)c1c(N)nc(-c2ccc(Cl)c(OC)c2F)nc1C(=O)OC [Compound 27-67] | 20% | 30% | 20% | 40% | 10% | 100% | 0% | 40% | 10% | 60% | 10% | 80% | 
6 | C=Cc1c(SC)nc(C2CC2)nc1C(=O)OC [Compound 2-400, 2-cyclopropyl-5-ethenyl-6-methoxycarbonyl-4-methylthio-pyrimidine] | 0% | 90% | 0% | 60% | 0% | 100% | 0% | 80% | 0% | 60% | 0% | 100% | 
7 | COC(=O)c1nc(-c2ccc(C(F)(F)F)cc2)nc(N)c1C(C)=O [Compound 31-53, 4-amino-6-methoxycarbonyl-5-methylcarbonyl-2-(4-trifluoromethylphenyl)-pyrimidine] | 80% | 100% | 90% | 90% | 90% | 100% | 90% | 100% | 100% | 90% | 100% | 100% | 
8 | CCc1c(N)nc(-c2ccc(C(F)(F)F)cc2)nc1C(=O)OC [Compound 31-42, 4-amino-5-ethyl-6-methoxycarbonyl-2-(4-trifluoro-methylphenyl)-pyrimidine] | 0% | 0% | 0% | 0% | 0% | 0% | 0% | 0% | 0% | 0% | 0% | 10% | 
9 | C=Cc1c(N)nc(-c2ccc(Cl)c(N(C)C)c2F)nc1C(=O)OC(C)C [Compound 33-306, 4-Amino-2-(4-chloro-3-dimethylamino-2-fluorophenyl)-5-ethenyl-6-isopropoxycarbon-yl-pyrimidine] | 20% | 40% | 20% | 0% | 20% | 80% | 40% | 100% | 70% | 30% | 70% | 100% | 
10 | C=Cc1c(N)nc(-c2ccc(Br)cc2)nc1C(=O)OC [Compound 6-61, 4-Amino-2-(4-bromophenyl)-5-ethenyl-6-methoxycarbonyl-pyrimidine] | 70% | 100% | 50% | 80% | 30% | 90% | 60% | 100% | 50% | 70% | 30% | 90% | 
11 | C/C=C/c1c(N)nc(C2CC2)nc1C(=O)OC [2-62 (E)] |  |  |  |  |  |  |  |  |  |  |  |  | Percentage damage ALOMY, pre-emergence [1]: 10%; Percentage damage AMARE, pre-emergence [2]: 40%; Percentage damage ECHCG, pre-emergence [3]: 10%; Percentage damage IPOHE, pre-emergence [4]: 30%; Percentage damage SETFA, pre-emergence (Setaria faberi (SETFA) [5]): 0%; Percentage damage SOLNI, pre-emergence (Solanum nigrum (SOLNI) [6]): 70%; Percentage damage ALOMY, post-emergence [7]: 10%; Percentage damage AMARE, post-emergence [8]: 40%; Percentage damage ECHCG, post-emergence [9]: 10%; Percentage damage IPOHE, post-emergence [10]: 50%; Percentage damage SETFA, post-emergence (Setaria faberi (SETFA) [11]): 20%; Percentage damage SOLNI, post-emergence (Solanum nigrum (SOLNI) [12]): 70%
12 | C/C=C\c1c(N)nc(-c2ccc(Cl)c(OC)c2F)nc1C(=O)OC [27-62 (Z)] |  |  |  |  |  |  |  |  |  |  |  |  | Percentage damage ALOMY, pre-emergence [1]: 80%; Percentage damage AMARE, pre-emergence [2]: 100%; Percentage damage ECHCG, pre-emergence [3]: 90%; Percentage damage IPOHE, pre-emergence [4]: 100%; Percentage damage SETFA, pre-emergence (Setaria faberi (SETFA) [5]): 80%; Percentage damage SOLNI, pre-emergence (Solanum nigrum (SOLNI) [6]): 100%; Percentage damage ALOMY, post-emergence [7]: 70%; Percentage damage AMARE, post-emergence [8]: 100%; Percentage damage ECHCG, post-emergence [9]: 80%; Percentage damage IPOHE, post-emergence [10]: 100%; Percentage damage SETFA, post-emergence (Setaria faberi (SETFA) [11]): 90%; Percentage damage SOLNI, post-emergence (Solanum nigrum (SOLNI) [12]): 80%
13 | C=Cc1c(N)nc(-c2ccc(C#N)cc2)nc1C(=O)OC [Compound 68-61, 4-Amino-2-(4-cyanophenyl)-5-ethenyl-6-methoxycarbonyl-pyrimidine] |  |  |  |  |  |  |  |  |  |  |  |  | pest or weed control at 250 g/ha [1, 13]: 0%; pest or weed control at 250 g/ha [2, 14]: 10%; pest or weed control at 250 g/ha [3, 15]: 0%; pest or weed control at 250 g/ha [4, 16]: 0%; pest or weed control at 250 g/ha (Setaria faberi (SETFA) [5]; [17]): 0%; pest or weed control at 250 g/ha (Solanum nigrum (SOLNI) [6]; [18]): 30%; pest or weed control at 250 g/ha [7, 13]: 0%; pest or weed control at 250 g/ha [8, 14]: 30%; pest or weed control at 250 g/ha [9, 15]: 0%; pest or weed control at 250 g/ha [10, 16]: 40%; pest or weed control at 250 g/ha (Setaria faberi (SETFA) [11]; [17]): 0%; pest or weed control at 250 g/ha (Solanum nigrum (SOLNI) [12]; [18]): 80%
